ChEMBL document CHEMBL2429780, “Synthesis, antimicrobial and cytotoxic activity of 2-azetidinone derivatives of pyridyl benzimidazoles” (Med Chem Res, 2013)
Values after ≈ are worked out from the molar mass of the structure shown. Active and inactive are the calls of the source. The calls are words filed in the database; no cut-off is given here.

Key:
Streptococcus pyogenes [1] = test: Antibacterial activity against Streptococcus pyogenes MTCC 442 assessed as growth inhibition after 24 hrs by broth dilution assay; format: functional; settings: MTCC 442, 24 h
Pseudomonas aeruginosa [2] = test: Antibacterial activity against Pseudomonas aeruginosa MTCC 1688 assessed as growth inhibition after 24 hrs by broth dilution assay; format: functional; settings: MTCC 1688, 24 h
Aspergillus clavatus [3] = test: Antifungal activity against Aspergillus clavatus assessed as growth inhibition at 12.5 to 1000 ug/mL after 48 hrs by broth dilution assay; format: functional, organism-based
Candida albicans [4] = test: Antifungal activity against Candida albicans assessed as growth inhibition at 12.5 to 1000 ug/mL after 48 hrs by broth dilution assay; format: functional, organism-based
Aspergillus niger [5] = test: Antifungal activity against Aspergillus niger assessed as growth inhibition at 12.5 to 1000 ug/mL after 48 hrs by broth dilution assay; format: functional, organism-based
Escherichia coli [6] = test: Antibacterial activity against Escherichia coli MTCC 443 assessed as growth inhibition after 24 hrs by broth dilution assay; format: functional; settings: MTCC 443, 24 h
Aspergillus clavatus [7] = test: Antifungal activity against Aspergillus clavatus assessed as growth inhibition after 48 hrs by broth dilution assay; format: functional
Aspergillus niger [8] = test: Antifungal activity against Aspergillus niger assessed as growth inhibition after 48 hrs by broth dilution assay; format: functional
HeLa = test: Cytotoxicity against human HeLa cells assessed as growth inhibition after 24 to 72 hrs by MTT assay; format: cell-based
Staphylococcus aureus [9] = test: Antibacterial activity against Staphylococcus aureus MTCC 96 assessed as growth inhibition after 24 hrs by broth dilution assay; format: functional; settings: MTCC 96, 24 h
Candida albicans [10] = test: Antifungal activity against Candida albicans assessed as growth inhibition after 48 hrs by broth dilution assay; format: functional
Staphylococcus aureus [11] = test: Antibacterial activity against Staphylococcus aureus MTCC 96 assessed as growth inhibition at 12.5 to 1000 ug/mL after 24 hrs by broth dilution assay; format: functional, organism-based
Pseudomonas aeruginosa [12] = test: Antibacterial activity against Pseudomonas aeruginosa MTCC 1688 assessed as growth inhibition at 12.5 to 1000 ug/mL after 24 hrs by broth dilution assay; format: functional, organism-based
Escherichia coli [13] = test: Antibacterial activity against Escherichia coli MTCC 443 assessed as growth inhibition at 12.5 to 1000 ug/mL after 24 hrs by broth dilution assay; format: functional, organism-based
Streptococcus pyogenes [14] = test: Antibacterial activity against Streptococcus pyogenes MTCC 442 assessed as growth inhibition at 12.5 to 1000 ug/mL after 24 hrs by broth dilution assay; format: functional, organism-based

MIC (Streptococcus pyogenes [1]) [µg/mL]	MIC (Pseudomonas aeruginosa [2]) [µg/mL]	MIC (Escherichia coli [6]) [µg/mL]	MIC (Aspergillus clavatus [7]) [µg/mL]	MIC (Aspergillus niger [8]) [µg/mL]	MIC (Staphylococcus aureus [9]) [µg/mL]	MIC (Candida albicans [10]) [µg/mL]	Structure (SMILES)	growth inhibition (GI) (Aspergillus clavatus [3])	growth inhibition (GI) (Candida albicans [4])	growth inhibition (GI) (Aspergillus niger [5])	IC50 (HeLa) [µM]	growth inhibition (GI) (Staphylococcus aureus [11])	growth inhibition (GI) (Pseudomonas aeruginosa [12])	growth inhibition (GI) (Escherichia coli [13])	growth inhibition (GI) (Streptococcus pyogenes [14])
1000 (≈ 2300 µM)	1000 (≈ 2300 µM)						N#Cc1c(-c2cccc(Cl)c2)cc(-c2nc3ccccc3[nH]2)nc1/N=C/c1ccccc1	inactive	inactive	inactive					
500 (≈ 1020 µM)	1000 (≈ 2040 µM)	250 (≈ 510 µM)	500 (≈ 1020 µM)	1000 (≈ 2040 µM)	500 (≈ 1020 µM)	500 (≈ 1020 µM)	Cc1ccccc1-c1cc(-c2nc3ccccc3[nH]2)nc(N2C(=O)C(Cl)C2c2ccccc2)c1C#N (stereo not given)				66				
1000 (≈ 2250 µM)	1000 (≈ 2250 µM)						N#Cc1c(-c2ccc([N+](=O)[O-])cc2)cc(-c2nc3ccccc3[nH]2)nc1/N=C/c1ccccc1								
25 (≈ 48 µM)	12.5 (≈ 24 µM)	25 (≈ 48 µM)	100 (≈ 192 µM)	100 (≈ 192 µM)	12.5 (≈ 24 µM)	100 (≈ 192 µM)	N#Cc1c(-c2ccc([N+](=O)[O-])cc2)cc(-c2nc3ccccc3[nH]2)nc1N1C(=O)C(Cl)C1c1ccccc1 (stereo not given)				> 100				
100 (≈ 196 µM)	250 (≈ 490 µM)	100 (≈ 196 µM)	100 (≈ 196 µM)	100 (≈ 196 µM)	100 (≈ 196 µM)	100 (≈ 196 µM)	N#Cc1c(-c2ccccc2Cl)cc(-c2nc3ccccc3[nH]2)nc1N1C(=O)C(Cl)C1c1ccccc1 (stereo not given)				> 100				
500 (≈ 1020 µM)	500 (≈ 1020 µM)	500 (≈ 1020 µM)	250 (≈ 508 µM)	500 (≈ 1020 µM)	500 (≈ 1020 µM)	250 (≈ 508 µM)	N#Cc1c(-c2cccc(O)c2)cc(-c2nc3ccccc3[nH]2)nc1N1C(=O)C(Cl)C1c1ccccc1 (stereo not given)				86.5				
							N#Cc1c(-c2cccc(O)c2)cc(-c2nc3ccccc3[nH]2)nc1N	inactive	inactive	inactive		inactive	inactive	inactive	inactive
25 (≈ 49 µM)	12.5 (≈ 24.5 µM)	12.5 (≈ 24.5 µM)	100 (≈ 196 µM)	100 (≈ 196 µM)	12.5 (≈ 24.5 µM)	100 (≈ 196 µM)	N#Cc1c(-c2ccc(Cl)cc2)cc(-c2nc3ccccc3[nH]2)nc1N1C(=O)C(Cl)C1c1ccccc1 (stereo not given)				> 100				
250 (≈ 510 µM)	500 (≈ 1020 µM)	500 (≈ 1020 µM)	500 (≈ 1020 µM)	250 (≈ 510 µM)	250 (≈ 510 µM)	500 (≈ 1020 µM)	Cc1cccc(-c2cc(-c3nc4ccccc4[nH]3)nc(N3C(=O)C(Cl)C3c3ccccc3)c2C#N)c1 (stereo not given)				78.2				
1000 (≈ 2300 µM)	1000 (≈ 2300 µM)						N#Cc1c(-c2ccccc2Cl)cc(-c2nc3ccccc3[nH]2)nc1/N=C/c1ccccc1								
							Cc1ccc(-c2cc(-c3nc4ccccc4[nH]3)nc(N)c2C#N)cc1	inactive	inactive	inactive		inactive	inactive	inactive	inactive
							N#Cc1c(-c2ccc(O)cc2)cc(-c2nc3ccccc3[nH]2)nc1N	inactive	inactive	inactive		inactive	inactive	inactive	inactive
							N#Cc1c(-c2ccccc2Cl)cc(-c2nc3ccccc3[nH]2)nc1N	inactive	inactive	inactive		inactive	inactive	inactive	inactive
500 (≈ 1020 µM)	500 (≈ 1020 µM)	500 (≈ 1020 µM)	500 (≈ 1020 µM)	500 (≈ 1020 µM)	500 (≈ 1020 µM)	500 (≈ 1020 µM)	N#Cc1c(-c2ccccc2O)cc(-c2nc3ccccc3[nH]2)nc1N1C(=O)C(Cl)C1c1ccccc1 (stereo not given)				78				
50 (≈ 98 µM)	25 (≈ 49 µM)	50 (≈ 98 µM)	50 (≈ 98 µM)	25 (≈ 49 µM)	25 (≈ 49 µM)	50 (≈ 98 µM)	N#Cc1c(-c2cccc(Cl)c2)cc(-c2nc3ccccc3[nH]2)nc1N1C(=O)C(Cl)C1c1ccccc1 (stereo not given)				> 100				
1000 (≈ 2300 µM)	1000 (≈ 2300 µM)						N#Cc1c(-c2ccc(Cl)cc2)cc(-c2nc3ccccc3[nH]2)nc1/N=C/c1ccccc1								

MIC (Streptococcus pyogenes [1]) [µg/mL]	MIC (Pseudomonas aeruginosa [2]) [µg/mL]	MIC (Escherichia coli [6]) [µg/mL]	MIC (Aspergillus clavatus [7]) [µg/mL]	MIC (Aspergillus niger [8]) [µg/mL]	MIC (Staphylococcus aureus [9]) [µg/mL]	MIC (Candida albicans [10]) [µg/mL]	Structure (SMILES)	growth inhibition (GI) (Aspergillus clavatus [3])	growth inhibition (GI) (Candida albicans [4])	growth inhibition (GI) (Aspergillus niger [5])	IC50 (HeLa) [µM]	growth inhibition (GI) (Staphylococcus aureus [11])	growth inhibition (GI) (Pseudomonas aeruginosa [12])	growth inhibition (GI) (Escherichia coli [13])	growth inhibition (GI) (Streptococcus pyogenes [14])
							N#Cc1c(-c2ccc(Cl)cc2O)cc(-c2nc3ccccc3[nH]2)nc1N	inactive	inactive	inactive		inactive	inactive	inactive	inactive
							Cc1cccc(-c2cc(-c3nc4ccccc4[nH]3)nc(N)c2C#N)c1	inactive	inactive	inactive		inactive	inactive	inactive	inactive
≥ 1000	≥ 1000		≥ 1000	≥ 1000	≥ 1000	≥ 1000	N#Cc1c(-c2cccc(Cl)c2)cc(-c2nc3ccccc3[nH]2)nc1N								
250 (≈ 494 µM)	250 (≈ 494 µM)	100 (≈ 198 µM)	500 (≈ 988 µM)	500 (≈ 988 µM)	500 (≈ 988 µM)	1000 (≈ 1980 µM)	COc1ccc(-c2cc(-c3nc4ccccc4[nH]3)nc(N3C(=O)C(Cl)C3c3ccccc3)c2C#N)cc1 (stereo not given)				58.2				
							N#Cc1c(-c2ccccc2)cc(-c2nc3ccccc3[nH]2)nc1N	inactive	inactive	inactive		inactive	inactive	inactive	inactive
500 (≈ 1020 µM)	500 (≈ 1020 µM)	100 (≈ 204 µM)	500 (≈ 1020 µM)	500 (≈ 1020 µM)	250 (≈ 510 µM)	500 (≈ 1020 µM)	Cc1ccc(-c2cc(-c3nc4ccccc4[nH]3)nc(N3C(=O)C(Cl)C3c3ccccc3)c2C#N)cc1 (stereo not given)				74.5				
250 (≈ 508 µM)	250 (≈ 508 µM)	250 (≈ 508 µM)	250 (≈ 508 µM)	500 (≈ 1020 µM)	250 (≈ 508 µM)	500 (≈ 1020 µM)	N#Cc1c(-c2ccc(O)cc2)cc(-c2nc3ccccc3[nH]2)nc1N1C(=O)C(Cl)C1c1ccccc1 (stereo not given)				67.4				
≥ 1000	≥ 1000				≥ 1000		N#Cc1c(-c2ccc(Cl)cc2)cc(-c2nc3ccccc3[nH]2)nc1N								
≥ 1000	≥ 1000				≥ 1000		N#Cc1c(-c2ccc([N+](=O)[O-])cc2)cc(-c2nc3ccccc3[nH]2)nc1N								
1000 (≈ 2250 µM)	1000 (≈ 2250 µM)						N#Cc1c(-c2cccc([N+](=O)[O-])c2)cc(-c2nc3ccccc3[nH]2)nc1/N=C/c1ccccc1	inactive	inactive	inactive					
50 (≈ 96 µM)	50 (≈ 96 µM)	50 (≈ 96 µM)	50 (≈ 96 µM)	50 (≈ 96 µM)	25 (≈ 48 µM)	50 (≈ 96 µM)	N#Cc1c(-c2cccc([N+](=O)[O-])c2)cc(-c2nc3ccccc3[nH]2)nc1N1C(=O)C(Cl)C1c1ccccc1 (stereo not given)				> 100				
250 (≈ 475 µM)	200 (≈ 380 µM)	500 (≈ 950 µM)	250 (≈ 475 µM)	250 (≈ 475 µM)	100 (≈ 190 µM)	250 (≈ 475 µM)	N#Cc1c(-c2ccc(Cl)cc2O)cc(-c2nc3ccccc3[nH]2)nc1N1C(=O)C(Cl)C1c1ccccc1 (stereo not given)				91.5				
500 (≈ 1050 µM)	500 (≈ 1050 µM)	250 (≈ 525 µM)	500 (≈ 1050 µM)	250 (≈ 525 µM)	250 (≈ 525 µM)	500 (≈ 1050 µM)	N#Cc1c(-c2ccccc2)cc(-c2nc3ccccc3[nH]2)nc1N1C(=O)C(Cl)C1c1ccccc1 (stereo not given)				81				
500 (≈ 988 µM)	500 (≈ 988 µM)	250 (≈ 494 µM)	250 (≈ 494 µM)	500 (≈ 988 µM)	500 (≈ 988 µM)	500 (≈ 988 µM)	COc1cccc(-c2cc(-c3nc4ccccc4[nH]3)nc(N3C(=O)C(Cl)C3c3ccccc3)c2C#N)c1 (stereo not given)				64				
≥ 1000	≥ 1000		≥ 1000	≥ 1000	≥ 1000	≥ 1000	N#Cc1c(-c2cccc([N+](=O)[O-])c2)cc(-c2nc3ccccc3[nH]2)nc1N								

Structure (SMILES)	MIC (Streptococcus pyogenes [1]) [µg/mL]	MIC (Pseudomonas aeruginosa [2]) [µg/mL]	MIC (Escherichia coli [6]) [µg/mL]	MIC (Aspergillus clavatus [7]) [µg/mL]	MIC (Aspergillus niger [8]) [µg/mL]	MIC (Staphylococcus aureus [9]) [µg/mL]	MIC (Candida albicans [10]) [µg/mL]	growth inhibition (GI) (Aspergillus clavatus [3])	growth inhibition (GI) (Candida albicans [4])	growth inhibition (GI) (Aspergillus niger [5])	IC50 (HeLa) [µM]	growth inhibition (GI) (Staphylococcus aureus [11])	growth inhibition (GI) (Pseudomonas aeruginosa [12])	growth inhibition (GI) (Escherichia coli [13])	growth inhibition (GI) (Streptococcus pyogenes [14])
CC(=O)N1CCN(c2ccc(OCC3COC(Cn4ccnc4)(c4ccc(Cl)cc4Cl)O3)cc2)CC1 (stereo not given) [KETOCONAZOLE]				50 (≈ 94.1 µM)	50 (≈ 94.1 µM)		50 (≈ 94.1 µM)								
O=C(N[C@H](CO)[C@H](O)c1ccc([N+](=O)[O-])cc1)C(Cl)Cl [CHLORAMPHENICOL]	50 (≈ 155 µM)	50 (≈ 155 µM)	50 (≈ 155 µM)			50 (≈ 155 µM)									
